Experimental data taken from the kinase profiling compilation of Christmann-Franck et al. (2016).

How the values were obtained:
Experiment in all cases: KINOMEscan competition binding
Conditions in all cases: compound 10.0 µM
MAP2K3 (human) = MAP2K3 (human) (UniProt P46734)
[1] = system: KIT (human), P10721 [D816V]
PRKD1 (human) = PRKD1 (human) (UniProt Q15139)
TXK (human) = TXK (human) (UniProt P42681)
TEK (human) = TEK (human) (UniProt Q02763)
CDK11B (human) = CDK11B (human) (UniProt P21127)
PAK2 (human) = PAK2 (human) (UniProt Q13177)
PDGFRB (human) = PDGFRB (human) (UniProt P09619)
AXL (human) = AXL (human) (UniProt P30530)
ACVR2B (human) = ACVR2B (human) (UniProt Q13705)
MST4 (human) = MST4 (human) (UniProt Q9P289)
ROS1 (human) = ROS1 (human) (UniProt P08922)
SIK1 (human) = SIK1 (human) (UniProt P57059)
TEC (human) = TEC (human) (UniProt P42680)
MARK4 (human) = MARK4 (human) (UniProt Q96L34)
PIK3CD (human) = PIK3CD (human) (UniProt O00329)
ROCK2 (human) = ROCK2 (human) (UniProt O75116)
PIP5K1A (human) = PIP5K1A (human) (UniProt Q99755)
TESK1 (human) = TESK1 (human) (UniProt Q15569)
ITK (human) = ITK (human) (UniProt Q08881)
CSNK1G3 (human) = CSNK1G3 (human) (UniProt Q9Y6M4)
PRKG2 (human) = PRKG2 (human) (UniProt Q13237)
GSK3A (human) = GSK3A (human) (UniProt P49840)
NUAK2 (human) = NUAK2 (human) (UniProt Q9H093)
CAMK2A (human) = CAMK2A (human) (UniProt Q9UQM7)
MYLK4 (human) = MYLK4 (human) (UniProt Q86YV6)
LCK (human) = LCK (human) (UniProt P06239)
MAP3K12 (human) = MAP3K12 (human) (UniProt Q12852)
MAPK6 (human) = MAPK6 (human) (UniProt Q16659)
EPHA5 (human) = EPHA5 (human) (UniProt P54756)
FER (human) = FER (human) (UniProt P16591)
LIMK2 (human) = LIMK2 (human) (UniProt P53671)
FES (human) = FES (human) (UniProt P07332)
TGFBR2 (human) = TGFBR2 (human) (UniProt P37173)
RPS6KA5 KD2 (human) = RPS6KA5 KD2 (human) (UniProt O75582)
MAPK15 (human) = MAPK15 (human) (UniProt Q8TD08)
IKBKB (human) = IKBKB (human) (UniProt O14920)
[2] = biological target: JAK1 JH2 pseudokinase (human) (UniProt P23458)
NEK5 (human) = NEK5 (human) (UniProt Q6P3R8)
MAP3K3 (human) = MAP3K3 (human) (UniProt Q99759)

Chain of CSNK1G3 (human) (Q9Y6M4 whole entry, looked up): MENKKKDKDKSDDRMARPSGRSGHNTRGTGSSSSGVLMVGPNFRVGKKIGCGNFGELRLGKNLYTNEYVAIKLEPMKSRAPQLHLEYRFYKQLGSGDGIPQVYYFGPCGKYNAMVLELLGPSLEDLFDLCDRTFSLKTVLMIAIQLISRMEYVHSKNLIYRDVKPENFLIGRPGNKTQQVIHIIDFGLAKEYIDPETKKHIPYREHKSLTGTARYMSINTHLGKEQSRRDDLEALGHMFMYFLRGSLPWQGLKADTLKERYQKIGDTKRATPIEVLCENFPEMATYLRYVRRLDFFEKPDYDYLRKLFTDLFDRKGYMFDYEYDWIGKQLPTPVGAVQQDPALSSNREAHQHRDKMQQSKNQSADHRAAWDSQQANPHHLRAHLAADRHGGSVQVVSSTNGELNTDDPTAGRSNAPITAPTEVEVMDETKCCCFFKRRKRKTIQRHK
Chain of MST4 (human) (Q9P289 whole entry, looked up): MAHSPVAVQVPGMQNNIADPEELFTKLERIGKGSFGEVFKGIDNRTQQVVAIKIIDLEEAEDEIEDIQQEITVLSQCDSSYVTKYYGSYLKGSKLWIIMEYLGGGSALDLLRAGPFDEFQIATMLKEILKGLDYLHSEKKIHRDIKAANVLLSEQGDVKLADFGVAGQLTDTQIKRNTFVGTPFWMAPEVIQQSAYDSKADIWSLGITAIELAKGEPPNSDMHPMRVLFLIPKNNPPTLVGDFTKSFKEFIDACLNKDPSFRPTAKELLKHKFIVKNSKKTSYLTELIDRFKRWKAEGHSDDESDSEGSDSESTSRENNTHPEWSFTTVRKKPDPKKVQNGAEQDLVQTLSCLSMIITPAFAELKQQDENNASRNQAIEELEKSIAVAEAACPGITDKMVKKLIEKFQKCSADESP
Chain of JAK1 JH2 pseudokinase (human) (P23458 whole entry, looked up): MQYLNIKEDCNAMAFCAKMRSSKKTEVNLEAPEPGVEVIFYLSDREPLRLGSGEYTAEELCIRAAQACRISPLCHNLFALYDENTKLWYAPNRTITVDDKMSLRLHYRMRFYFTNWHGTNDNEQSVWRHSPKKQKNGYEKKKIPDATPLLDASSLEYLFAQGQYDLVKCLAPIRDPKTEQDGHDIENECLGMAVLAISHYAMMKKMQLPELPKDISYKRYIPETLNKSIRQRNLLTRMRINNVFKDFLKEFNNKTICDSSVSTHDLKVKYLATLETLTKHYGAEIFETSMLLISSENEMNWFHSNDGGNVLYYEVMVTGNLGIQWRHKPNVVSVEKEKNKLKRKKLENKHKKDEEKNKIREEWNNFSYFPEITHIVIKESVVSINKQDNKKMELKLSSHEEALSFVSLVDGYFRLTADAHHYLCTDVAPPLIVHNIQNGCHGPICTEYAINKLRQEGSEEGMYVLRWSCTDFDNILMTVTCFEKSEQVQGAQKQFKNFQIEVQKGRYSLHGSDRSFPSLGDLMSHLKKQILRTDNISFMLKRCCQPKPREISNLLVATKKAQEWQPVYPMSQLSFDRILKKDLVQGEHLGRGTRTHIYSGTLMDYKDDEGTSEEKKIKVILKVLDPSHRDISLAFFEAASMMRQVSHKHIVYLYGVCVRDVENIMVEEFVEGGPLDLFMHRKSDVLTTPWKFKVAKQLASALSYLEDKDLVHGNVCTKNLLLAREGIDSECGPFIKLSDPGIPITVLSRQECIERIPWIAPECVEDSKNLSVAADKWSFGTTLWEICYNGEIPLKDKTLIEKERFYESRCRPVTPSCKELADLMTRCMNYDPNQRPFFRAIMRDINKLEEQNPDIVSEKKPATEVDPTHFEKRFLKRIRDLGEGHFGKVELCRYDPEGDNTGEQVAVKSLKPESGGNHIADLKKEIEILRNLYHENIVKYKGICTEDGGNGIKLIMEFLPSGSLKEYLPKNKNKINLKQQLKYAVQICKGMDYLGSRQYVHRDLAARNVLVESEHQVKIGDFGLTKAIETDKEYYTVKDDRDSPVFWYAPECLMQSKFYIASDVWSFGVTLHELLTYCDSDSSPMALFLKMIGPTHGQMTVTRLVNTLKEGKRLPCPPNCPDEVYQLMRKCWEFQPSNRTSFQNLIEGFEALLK
Chain of RPS6KA5 KD2 (human) (O75582 whole entry, looked up): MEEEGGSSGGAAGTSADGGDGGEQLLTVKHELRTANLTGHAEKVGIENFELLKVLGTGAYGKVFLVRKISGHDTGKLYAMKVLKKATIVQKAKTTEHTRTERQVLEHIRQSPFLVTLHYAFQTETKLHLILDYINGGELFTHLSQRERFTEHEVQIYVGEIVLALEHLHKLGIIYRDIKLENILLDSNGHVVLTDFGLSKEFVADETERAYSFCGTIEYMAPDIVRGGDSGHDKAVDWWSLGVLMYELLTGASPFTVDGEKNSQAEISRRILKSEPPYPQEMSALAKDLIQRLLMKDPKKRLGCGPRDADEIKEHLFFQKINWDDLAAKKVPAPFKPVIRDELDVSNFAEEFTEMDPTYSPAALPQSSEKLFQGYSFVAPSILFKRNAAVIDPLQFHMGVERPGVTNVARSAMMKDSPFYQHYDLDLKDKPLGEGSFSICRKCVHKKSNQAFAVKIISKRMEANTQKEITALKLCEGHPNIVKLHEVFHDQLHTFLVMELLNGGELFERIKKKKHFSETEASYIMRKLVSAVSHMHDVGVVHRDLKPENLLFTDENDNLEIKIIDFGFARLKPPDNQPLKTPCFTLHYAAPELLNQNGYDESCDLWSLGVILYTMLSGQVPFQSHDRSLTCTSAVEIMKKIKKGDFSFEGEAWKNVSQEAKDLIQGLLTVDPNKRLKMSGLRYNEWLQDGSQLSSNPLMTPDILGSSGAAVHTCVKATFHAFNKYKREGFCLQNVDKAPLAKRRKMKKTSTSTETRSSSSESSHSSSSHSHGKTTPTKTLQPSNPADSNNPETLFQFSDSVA
Chain of PIK3CD (human) (O00329 whole entry, looked up): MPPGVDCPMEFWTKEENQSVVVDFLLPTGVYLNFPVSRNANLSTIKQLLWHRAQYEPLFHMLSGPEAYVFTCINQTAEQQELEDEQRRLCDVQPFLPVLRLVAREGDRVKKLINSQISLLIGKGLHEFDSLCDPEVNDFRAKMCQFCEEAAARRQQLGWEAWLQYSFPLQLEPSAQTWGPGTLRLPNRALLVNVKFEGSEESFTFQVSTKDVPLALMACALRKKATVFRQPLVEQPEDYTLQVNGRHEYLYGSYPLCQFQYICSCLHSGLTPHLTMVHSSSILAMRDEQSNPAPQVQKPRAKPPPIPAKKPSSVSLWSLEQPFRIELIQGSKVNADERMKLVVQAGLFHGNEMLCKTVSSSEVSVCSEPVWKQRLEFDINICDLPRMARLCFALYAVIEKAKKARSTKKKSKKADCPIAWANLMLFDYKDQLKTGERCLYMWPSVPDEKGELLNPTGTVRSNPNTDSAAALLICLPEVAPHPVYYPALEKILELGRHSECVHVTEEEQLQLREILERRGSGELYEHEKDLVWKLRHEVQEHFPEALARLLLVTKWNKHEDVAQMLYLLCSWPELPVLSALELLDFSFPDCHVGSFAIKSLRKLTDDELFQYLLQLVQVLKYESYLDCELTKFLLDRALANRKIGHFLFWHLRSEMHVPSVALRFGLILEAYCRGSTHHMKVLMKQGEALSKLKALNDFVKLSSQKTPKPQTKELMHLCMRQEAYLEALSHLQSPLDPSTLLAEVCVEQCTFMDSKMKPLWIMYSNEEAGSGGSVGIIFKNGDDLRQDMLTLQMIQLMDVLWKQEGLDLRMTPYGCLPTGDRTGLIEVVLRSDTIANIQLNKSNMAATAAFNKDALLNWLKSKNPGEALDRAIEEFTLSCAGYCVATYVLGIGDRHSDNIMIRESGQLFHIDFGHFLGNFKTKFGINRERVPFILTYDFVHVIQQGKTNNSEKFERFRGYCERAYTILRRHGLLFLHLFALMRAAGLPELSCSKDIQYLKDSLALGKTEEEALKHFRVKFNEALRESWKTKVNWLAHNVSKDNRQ
Chain of ACVR2B (human) (Q13705 whole entry, looked up): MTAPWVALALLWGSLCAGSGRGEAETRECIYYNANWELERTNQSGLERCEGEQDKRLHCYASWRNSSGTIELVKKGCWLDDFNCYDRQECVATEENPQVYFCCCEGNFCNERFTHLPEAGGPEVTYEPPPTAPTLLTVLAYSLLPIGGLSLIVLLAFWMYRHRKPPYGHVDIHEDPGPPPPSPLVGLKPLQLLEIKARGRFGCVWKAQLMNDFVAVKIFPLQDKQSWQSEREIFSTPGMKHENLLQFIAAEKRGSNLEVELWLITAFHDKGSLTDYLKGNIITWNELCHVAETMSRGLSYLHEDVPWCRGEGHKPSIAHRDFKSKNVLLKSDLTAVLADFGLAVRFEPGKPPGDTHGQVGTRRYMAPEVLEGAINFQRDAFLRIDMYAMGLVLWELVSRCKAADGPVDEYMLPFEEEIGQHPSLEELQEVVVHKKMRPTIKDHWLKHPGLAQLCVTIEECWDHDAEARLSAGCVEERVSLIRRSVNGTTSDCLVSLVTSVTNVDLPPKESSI
Chain of TEC (human) (P42680 whole entry, looked up): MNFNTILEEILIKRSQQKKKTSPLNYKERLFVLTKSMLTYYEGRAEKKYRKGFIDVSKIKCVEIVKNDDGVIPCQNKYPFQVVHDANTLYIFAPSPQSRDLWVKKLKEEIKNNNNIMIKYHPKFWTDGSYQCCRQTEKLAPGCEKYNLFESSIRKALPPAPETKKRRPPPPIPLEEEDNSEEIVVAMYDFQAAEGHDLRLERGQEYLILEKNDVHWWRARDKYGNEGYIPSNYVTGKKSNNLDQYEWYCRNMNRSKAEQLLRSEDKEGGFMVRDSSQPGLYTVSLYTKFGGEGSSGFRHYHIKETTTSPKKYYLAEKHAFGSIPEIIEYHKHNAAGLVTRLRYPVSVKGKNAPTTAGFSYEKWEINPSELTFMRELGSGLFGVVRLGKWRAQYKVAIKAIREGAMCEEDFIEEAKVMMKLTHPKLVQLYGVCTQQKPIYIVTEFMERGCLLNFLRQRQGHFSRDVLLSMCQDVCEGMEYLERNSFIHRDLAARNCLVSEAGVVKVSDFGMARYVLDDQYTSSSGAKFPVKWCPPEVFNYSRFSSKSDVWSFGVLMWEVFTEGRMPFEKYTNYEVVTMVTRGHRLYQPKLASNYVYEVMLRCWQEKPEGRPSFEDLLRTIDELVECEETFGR

## Cc1ccc(NC(=O)c2cccc(C(C)(C)C#N)c2)cc1Nc1ccc2ncn(C)c(=O)c2c1
MAP2K3 (human)
  kinase still bound, per cent of control: 80%
[1]
  kinase still bound, per cent of control: 16%
PRKD1 (human)
  kinase still bound, per cent of control: 67%
TXK (human)
  kinase still bound, per cent of control: 5.6%
TEK (human)
  kinase still bound, per cent of control: 62%
CDK11B (human)
  kinase still bound, per cent of control: 11%
PAK2 (human)
  kinase still bound, per cent of control: 100%
PDGFRB (human)
  kinase still bound, per cent of control: 0%
AXL (human)
  kinase still bound, per cent of control: 75%
ACVR2B (human)
  kinase still bound, per cent of control: 100%
MST4 (human)
  kinase still bound, per cent of control: 100%
ROS1 (human)
  kinase still bound, per cent of control: 100%
SIK1 (human)
  kinase still bound, per cent of control: 30%
TEC (human)
  kinase still bound, per cent of control: 100%
MARK4 (human)
  kinase still bound, per cent of control: 100%
PIK3CD (human)
  kinase still bound, per cent of control: 99%
ROCK2 (human)
  kinase still bound, per cent of control: 80%
PIP5K1A (human)
  kinase still bound, per cent of control: 100%
TESK1 (human)
  kinase still bound, per cent of control: 100%
ITK (human)
  kinase still bound, per cent of control: 100%
CSNK1G3 (human)
  kinase still bound, per cent of control: 100%
PRKG2 (human)
  kinase still bound, per cent of control: 100%
GSK3A (human)
  kinase still bound, per cent of control: 100%
NUAK2 (human)
  kinase still bound, per cent of control: 100%
CAMK2A (human)
  kinase still bound, per cent of control: 100%
MYLK4 (human)
  kinase still bound, per cent of control: 100%
LCK (human)
  kinase still bound, per cent of control: 0.7%
MAP3K12 (human)
  kinase still bound, per cent of control: 74%
MAPK6 (human)
  kinase still bound, per cent of control: 100%
EPHA5 (human)
  kinase still bound, per cent of control: 1%
FER (human)
  kinase still bound, per cent of control: 100%
LIMK2 (human)
  kinase still bound, per cent of control: 95%
FES (human)
  kinase still bound, per cent of control: 43%
TGFBR2 (human)
  kinase still bound, per cent of control: 94%
RPS6KA5 KD2 (human)
  kinase still bound, per cent of control: 100%
MAPK15 (human)
  kinase still bound, per cent of control: 100%
IKBKB (human)
  kinase still bound, per cent of control: 94%
[2]
  kinase still bound, per cent of control: 82%
NEK5 (human)
  kinase still bound, per cent of control: 33%
MAP3K3 (human)
  kinase still bound, per cent of control: 100%
